PMC5130005, “Indolin-2-one compounds targeting thioredoxin reductase as potential anticancer drug leads” (Oncotarget, 2016)

Legend:
[1] = target: T1, recombinant rat TrxR (Rattus norvegicus, UniProt O89049); assay: in vitro TrxR DTNB reduction assay; assay type: biochemical; details: 30 min incubation, 100 nM recombinant rat TrxR, 200 μM NADPH, read-out: TrxR inhibition IC50
T1 construct: made in house
T1 sequence (O89049 1-499): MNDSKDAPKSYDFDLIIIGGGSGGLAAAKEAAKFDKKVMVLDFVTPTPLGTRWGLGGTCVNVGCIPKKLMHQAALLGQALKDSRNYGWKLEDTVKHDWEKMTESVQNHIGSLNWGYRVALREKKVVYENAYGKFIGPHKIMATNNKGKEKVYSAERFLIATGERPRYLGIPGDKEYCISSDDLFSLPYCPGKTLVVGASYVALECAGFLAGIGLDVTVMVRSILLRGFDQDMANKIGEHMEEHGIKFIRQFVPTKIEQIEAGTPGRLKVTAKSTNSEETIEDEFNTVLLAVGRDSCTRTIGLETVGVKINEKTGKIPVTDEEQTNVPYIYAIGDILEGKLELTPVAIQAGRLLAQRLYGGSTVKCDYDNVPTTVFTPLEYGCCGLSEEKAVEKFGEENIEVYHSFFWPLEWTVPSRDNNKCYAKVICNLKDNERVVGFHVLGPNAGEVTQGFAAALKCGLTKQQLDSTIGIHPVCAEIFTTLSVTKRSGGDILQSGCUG
Protocol: In a volume of 100 μl of 50 mM Tris-HCl pH 7.5, 2 mM EDTA buffer (TE buffer), compounds of concentrations 1-100 μM were incubated with 100 nM recombinant rat TrxR and 200 μM NADPH at room temperature in 96-well plates for 30 and 60 min. The incubation was terminated by addition of 100 μl per well of 10 mM DTNB, 200 μM NADPH solution in TE buffer and immediately followed by measurement of linear increase of absorbance at 412 nm for the initial 2 min using the VersaMax microplate reader (Molecular Devices). The results were expressed as % of TrxR activity of drug-treated sample over that of DMSO control. The 50% inhibition concentration (IC50) values were calculated.

[2] = test system: MCF-7 cells; assay: MTT cell viability assay, MCF-7 cells; assay type: cell-based; details: Homo sapiens, MCF7, 72 h, mean ± SD of 3 experiments; for GI50: read-out: GI50 (50% growth inhibition concentration), MCF-7 cells; for CC50: read-out: LC50 (50% lethal concentration), MCF-7 cells
Protocol: (§1) HCT 116 and MCF-7 cells were seeded in 96-well plates at a density of 1 × 10^4 cells/well and allowed to grow for 20-24 h before addition of test compounds. DMSO stocks of indolin-2-one compounds were serially diluted in medium each time an assay was performed. Cell viability was determined at the time of compound addition (time 0) and after 72 h of compound treatment by reduction of 3-(4,5-dimethylthiazol-2-yl)-2,5-diphenyltetrazolium bromide (MTT) by dehydrogenases in viable cells. MTT was added into each well (final concentration 400 μg/ml) and the plates were incubated for 4 h at 37°C. The supernatants were aspirated and upon solubilization of the formed formazan crystals in DMSO:glycine buffer pH 10.5 (ratio 4:1), absorbance at 550 nm was measured. 50% growth inhibition concentrations (GI50) and 50% lethal concentrations (LC50) values were calculated.

[3] = test system: HCT 116 cells; assay: MTT cell viability assay, HCT 116 cells; assay type: cell-based; details: Homo sapiens, 72 h, mean ± SD of 3 experiments; for GI50: read-out: GI50 (50% growth inhibition concentration), HCT 116 cells
Protocol: as §1

[4] = target: T1, recombinant rat TrxR; assay: NADPH oxidase activity of recombinant rat TrxR (substrate test); assay type: biochemical; details: 8 μM juglone, 15 nM TrxR, 250 μM NADPH, 20 min
Protocol: In a volume of 198 μl of 15 nM recombinant rat TrxR and 250 μM NADPH in TE buffer, 2 μl of diluted DMSO stocks of juglone and compounds 4 and 5 was added to final concentrations of 8 μM (for julgone) and 100 μM (for compounds 4 and 5). The consumption of NADPH was immediately monitored at 340 nm for 20 min using the VersaMax microplate reader. The linear decrease in NADPH absorbance was used for calculating NADPH consumption and expressed as % of activity of drug-treated sample over that of DMSO-treated sample.

CN1C(=O)/C(=C/C(=O)c2cccc(Cl)c2)c2ccccc21 [Compound 14]
IC50 [1]: 18.4 ± 2.2 µM | GI50 [2]: 23 ± 4.5 µM | CC50 [2]: 84.3 ± 5.8 µM | LC50 (50% lethal concentration) [3]: 26.9 ± 1.5 µM | GI50 [3]: 15.6 ± 1.1 µM

CN1C(=O)/C(=C\C(=O)c2ccc(Cl)cc2)c2ccccc21 [Compound 20]
IC50 [1]: 15.9 ± 2.9 µM | GI50 [2]: 20.4 ± 3.5 µM | CC50 [2]: 91.7 ± 2 µM | LC50 (50% lethal concentration) [3]: 28.7 ± 2.4 µM | GI50 [3]: 16.1 ± 2.4 µM

Cc1ccccc1C(=O)/C=C1/C(=O)N(C)c2ccccc21 [Compound 7]
IC50 [1]: 19 ± 2.4 µM | GI50 [2]: 17.3 ± 4.6 µM | CC50 [2]: 27.9 ± 1.5 µM | LC50 (50% lethal concentration) [3]: 27.8 ± 0.8 µM | GI50 [3]: 12.4 ± 2.1 µM

CN1C(=O)/C(=C/C(=O)c2ccc(C(F)(F)F)cc2)c2ccccc21 [Compound 18]
IC50 [1]: > 100 µM | GI50 [2]: 44.4 ± 0.1 µM | CC50 [2]: 89.8 ± 5.1 µM | LC50 (50% lethal concentration) [3]: 90.5 ± 7.3 µM | GI50 [3]: 15.7 ± 1.7 µM

O=C1C=CC(=O)c2c(O)cccc21 [juglone]
rate of NADPH consumption of recombinant TrxR [4]: markedly increased

CC(C)c1ccc(C(=O)/C=C2/C(=O)N(C)c3ccccc32)cc1 [Compound 11]
IC50 [1]: 25.2 ± 5.4 µM | GI50 [2]: 10.5 ± 1.7 µM | CC50 [2]: 27 ± 0.4 µM | LC50 (50% lethal concentration) [3]: 26.7 ± 1.7 µM | GI50 [3]: 14.4 ± 1.8 µM

CC(=O)/C=C1/C(=O)N(C(C)C)c2ccccc21 [Compound 3]
IC50 [1]: 15 ± 1.4 µM | GI50 [2]: 7.1 ± 0.6 µM | CC50 [2]: 22.4 ± 0.6 µM | LC50 (50% lethal concentration) [3]: 9.8 ± 0.1 µM | GI50 [3]: 5.3 ± 0.1 µM

CN1C(=O)/C(=C/C(=O)c2ccccc2C(F)(F)F)c2ccccc21 [Compound 16]
IC50 [1]: 28.9 ± 0.2 µM | GI50 [2]: 15.8 ± 1 µM | CC50 [2]: 27.7 ± 1.9 µM | LC50 (50% lethal concentration) [3]: 27.7 ± 3.1 µM | GI50 [3]: 19.5 ± 1.3 µM

Cc1ccc(C(=O)/C=C2/C(=O)N(C)c3ccccc32)cc1 [Compound 9]
IC50 [1]: 21.6 ± 4.4 µM | GI50 [2]: 10.5 ± 0.8 µM | CC50 [2]: 28.4 ± 0.8 µM | LC50 (50% lethal concentration) [3]: 28.6 ± 0.8 µM | GI50 [3]: 10.5 ± 1.2 µM

CN1C(=O)/C(=C/C(=O)c2ccc(F)cc2)c2ccccc21 [Compound 13]
IC50 [1]: 18.7 ± 3.56 µM | GI50 [2]: 12.5 ± 2.4 µM | CC50 [2]: 28.6 ± 1.2 µM | LC50 (50% lethal concentration) [3]: 29 ± 1.4 µM | GI50 [3]: 11.9 ± 0.5 µM

Cc1cccc(C(=O)/C=C2/C(=O)N(C)c3ccccc32)c1 [Compound 8]
IC50 [1]: 22.5 ± 0.4 µM | GI50 [2]: 14 ± 0.6 µM | CC50 [2]: 27.9 ± 0.6 µM | LC50 (50% lethal concentration) [3]: 28 ± 1 µM | GI50 [3]: 10.4 ± 2.6 µM

CN1C(=O)/C(=C/C(=O)c2cccc(C(F)(F)F)c2)c2ccccc21 [Compound 17]
IC50 [1]: 34.2 ± 18.2 µM | GI50 [2]: 17.9 ± 0.4 µM | CC50 [2]: 89.6 ± 3.6 µM | LC50 (50% lethal concentration) [3]: 26.2 ± 2.1 µM | GI50 [3]: 16.1 ± 2.2 µM

CCCCc1ccc(C(=O)/C=C2/C(=O)N(C)c3ccccc32)cc1 [Compound 12]
IC50 [1]: > 100 µM | GI50 [2]: 16.5 ± 4 µM | CC50 [2]: 81.2 ± 9.7 µM | LC50 (50% lethal concentration) [3]: 26.7 ± 0.8 µM | GI50 [3]: 13.5 ± 2.6 µM

CCN1C(=O)/C(=C/C(C)=O)c2ccccc21 [Compound 2]
IC50 [1]: 10.2 ± 1.8 µM | GI50 [2]: 7.9 ± 1.7 µM | CC50 [2]: 25 ± 1.6 µM | LC50 (50% lethal concentration) [3]: 9.7 ± 0.1 µM | GI50 [3]: 4.2 ± 0.5 µM

CN1C(=O)/C(=C/C(=O)c2ccc(Cl)cc2)c2ccccc21 [Compound 15]
IC50 [1]: 16.9 ± 3.4 µM | GI50 [2]: 20.9 ± 3 µM | CC50 [2]: 92 ± 1.2 µM | LC50 (50% lethal concentration) [3]: 28.6 ± 1.4 µM | GI50 [3]: 12.4 ± 2.8 µM

CCc1ccc(C(=O)/C=C2/C(=O)N(C)c3ccccc32)cc1 [Compound 10]
IC50 [1]: 19.1 ± 0.4 µM | GI50 [2]: 10.4 ± 0.6 µM | CC50 [2]: 30.4 ± 6.2 µM | LC50 (50% lethal concentration) [3]: 28.8 ± 1.1 µM | GI50 [3]: 11.9 ± 1.1 µM
